Patent publication US20250304567A1, “PYRROLIDIONE DERIVATIVES AS INHIBITORS OF NF KAPPA B INDUCING KINASE” (priority 2022, published 2025)
Read-outs that look alike come from different tables or passages of the source.

Key:
[1] = system: p-IKKa levels in L363 (NIK translocated multiple myeloma) cells; assay: Effect of compounds on p-IKKa levels in L363 (NIK translocated multiple myeloma) cells (AlphaLISA SureFire Ultra p-IKKa Ser176/180); format: cell-based, human; settings: average if tested more than once, read-out: Assay 2 IC50
Experimental: Assay 2: Effect of Compounds on p-IKKa Levels in L363 (NIK Translocated Multiple Myeloma) Cells
All compounds tested were dissolved and serially diluted in DMSO, 1:3 dilution for 11 points in an Echo compatible plate. 100% DMSO was added to columns 12 and 24 of the plate to serve as high and low signal controls. This compound plate was used to spot 20 nL of compound or DMSO into a Greiner 384 well TC plate (781080). The final DMSO concentration was 0.3% (v/v) in cell assays. Human L363 cells (ATCC) were cultured in RPM11640 medium supplemented with GlutaMax, non-essential amino acids, sodium pyruvate and 10% fetal bovine serum. Cells were routinely maintained at densities of 0.2×10^6 cells per ml-2×10^6 cells per mL at 37° C. in a humidified 5% CO2 atmosphere incubator. Cells were passaged twice a week splitting back to obtain the low density. The day before the assay, cells were washed twice in HBSS (Hank's Balanced Salt Solution), resuspended in Dulbecco's Modified Eagle Medium (DMEM)+0.5% IgG and protease free BSA (Jackson Immuno Research Laboratories), +/−250 ng/ml recombinant human B-cell activating factor (BAFF/BLyS/TNFSF13B) and incubated overnight at 37° C. in a humidified 5% CO2 atmosphere (bulk stimulation with or without BAFF). The next day, the cell concentration was adjusted to 1×10^7 cells/ml in DMEM+/−250 ng/ml BAFF+/−10 μM MG132 and plated at 10 μl/well into compound or DMSO spotted 384 well TC plates. Seeded cells were incubated at 37° C. in a humidified 5% CO2 atmosphere for 6 h. After 6 h, the plates were removed from the incubator and cell lysis was achieved by the addition of 2.5 μl 5× lysis buffer containing protease and phosphatase inhibitors, followed by shaking on a plate shaker at room temperature for 15 min. At the end of this incubation, lysed cells were sequentially treated and incubated with acceptor and donor bead mixes according to the manufacturer's protocol for a 1 plate/2-incubation suspension cell assay (AlphaLISA SureFire Ultra p-IKKa (Ser 176/180) Assay Kit (Perkin Elmer). Plates were read using an EnVision Multilabel Plate Reader (Perkin Elmer). Within an experiment, a concentration response curve for each compound was run in duplicate. The signal obtained in the test wells was normalized using high signal (BAFF stimulated cells, DMSO, MG132) and low signal (unstimulated cells, DMSO) controls. To determine the IC50, a sigmoidal curve was fitted to the plot of % inhibition versus Log10 compound concentration.

[2] = molecular target: Recombinant Human NF-kappaB-Inducing Kinase (NIK/MAP3K14) (Homo sapiens, UniProt Q99558); assay: Inhibition of auto-phosphorylation of recombinant human NIK/MAP3K14 activity (AlphaScreen); format: biochemical; settings: 5 μM ATP, 1 nM NIK, average if tested more than once
Experimental: Assay 1: Inhibition of Auto-Phosphorylation of Recombinant Human NF-kappaB-Inducing Kinase (NIK/MAP3K14) Activity (AlphaScreen™)
NIK/MAP3K14 auto-phosphorylation activity was measured using the AlphaScreen™ (αscreen) format (Perkin Elmer). All compounds tested were dissolved in dimethyl sulfoxide (DMSO) and further dilutions were made in assay buffer. The final DMSO concentration was 0.7% (v/v) in assays. The assay buffer was 50 mM Tris pH 7.5 containing 1 mM EGTA (ethylene glycol tetraacetic acid), 1 mM DTT (dithiothreitol), 0.1 mM Na3VO4, 5 mM MgCl2, and 0.01% Tween®20. The assays were carried out in 384 well Proxiplates (Perkin Elmer). The incubations consisted of the compound, 5 μM Adenosine-5′-triphosphate (ATP), and 1 nM NIK/MAP3K14. Incubations were initiated by the addition of GST-tagged NIK/MAP3K14 enzyme, carried out for 2 h at 25° C. and terminated by addition of stop buffer containing anti-phospho-IKK Ser176/180 antibody. Protein A Acceptor and Glutathione-Donor beads were added before reading using an EnVision Multilabel Plate Reader (Perkin Elmer). The signal obtained in the wells was normalized using high (full enzyme activity, 0.7% DMSO) and low controls (no enzyme activity, 0.7% DMSO, no ATP). IC50's were determined by fitting a sigmoidal curve to % inhibition of control versus Log10 compound concentration.

[3] = Homo sapiens, L-363, p-IKKa levels in L363 cells

Sequence of Recombinant Human NF-kappaB-Inducing Kinase (NIK/MAP3K14) (Q99558 whole entry): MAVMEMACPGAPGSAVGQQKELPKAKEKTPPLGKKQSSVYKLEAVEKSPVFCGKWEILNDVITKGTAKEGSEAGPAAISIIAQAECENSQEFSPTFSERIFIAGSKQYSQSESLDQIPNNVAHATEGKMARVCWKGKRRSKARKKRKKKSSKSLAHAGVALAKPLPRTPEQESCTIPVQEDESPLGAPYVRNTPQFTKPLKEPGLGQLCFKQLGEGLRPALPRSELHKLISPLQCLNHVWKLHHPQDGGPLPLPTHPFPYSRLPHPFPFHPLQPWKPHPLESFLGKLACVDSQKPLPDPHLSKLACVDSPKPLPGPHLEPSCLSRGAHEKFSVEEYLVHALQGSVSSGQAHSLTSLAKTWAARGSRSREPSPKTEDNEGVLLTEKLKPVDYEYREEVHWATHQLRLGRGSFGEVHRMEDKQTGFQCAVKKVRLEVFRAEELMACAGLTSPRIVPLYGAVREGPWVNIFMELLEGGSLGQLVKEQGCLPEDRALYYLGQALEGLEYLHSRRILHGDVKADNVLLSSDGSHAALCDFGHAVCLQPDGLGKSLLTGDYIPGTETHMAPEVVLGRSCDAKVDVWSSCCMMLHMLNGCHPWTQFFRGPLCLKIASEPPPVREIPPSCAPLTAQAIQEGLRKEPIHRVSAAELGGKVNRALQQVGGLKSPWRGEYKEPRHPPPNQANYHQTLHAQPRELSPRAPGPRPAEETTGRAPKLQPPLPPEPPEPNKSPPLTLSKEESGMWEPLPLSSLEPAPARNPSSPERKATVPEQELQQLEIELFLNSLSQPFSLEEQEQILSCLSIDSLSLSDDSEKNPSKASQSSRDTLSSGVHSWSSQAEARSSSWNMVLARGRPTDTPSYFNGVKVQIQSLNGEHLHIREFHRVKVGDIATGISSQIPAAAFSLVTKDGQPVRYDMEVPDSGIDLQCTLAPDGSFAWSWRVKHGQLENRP

**Q.** With `CN1CCC(O)(c2cncc(-c3csc(-c4ccnc(Nc5ccnn5C)n4)n3)c2)C1=O` (single isomer, unassigned) [Example 46, (R)-3-Hydroxy-1-methyl-3-(5-(2-(2-((1-methyl-1H-pyrazol-5-yl)amino)pyrimidin-4-yl)thiazol-4-yl)pyridin-3-yl)pyrrolidin-2-one or (S)-3-hydroxy-1-methyl-3-(5-(2-(2-((1-methyl-1H-pyrazol-5-yl)amino)pyrimidin-4-yl)thiazol-4-yl)pyridin-3-yl)pyrrolidin-2-one] as the compound, how does the IC50 [1, 3] read?
**A.** < 100 nM

**Q.** And the IC50 [2]?
**A.** < 100 nM

**Q.** `CC(Nc1nccc(-c2nc(-c3cccc(C4(O)CCN(C)C4=O)c3)cs2)n1)c1ccn(C)n1` (single isomer, unassigned) [Example 50] was tested. Which IC50 ([1]; p-IKKa levels in L363 cells) did it give?
**A.** > 501 nM

**Q.** And the IC50 [2]?
**A.** 100 to 500 nM

**Q.** Which results are given for `CC(Nc1nccc(-c2nc(-c3cccc(C4(O)CCN(C)C4=O)c3)cs2)n1)c1ccn(C)n1` (single isomer, unassigned) [Example 51]?
**A.** IC50 ([1]; p-IKKa levels in L363 cells): 100 to 500 nM; IC50 [2]: < 100 nM

**Q.** Which results are given for `CN1CCC(O)(c2cc(C#N)cc(-c3csc(-c4ccnc(Nc5ccn(C)n5)n4)n3)c2)C1=O` (single isomer, unassigned) [Example 57, 3-(3-hydroxy-1-methyl-2-oxopyrrolidin-3-yl)-5-(2-(2-((1-methyl-1H-pyrazol-3-yl)amino)pyrimidin-4-yl)thiazol-4-yl)benzonitrile]?
**A.** IC50 [1, 3]: > 501 nM; IC50 [2]: < 100 nM

**Q.** With `CN1CCC(O)(c2cc(C#N)cc(-c3csc(-c4ccnc(Nc5ccn(C)n5)n4)n3)c2)C1=O` (single isomer, unassigned) [Example 58, 3-(3-hydroxy-1-methyl-2-oxopyrrolidin-3-yl)-5-(2-(2-((1-methyl-1H-pyrazol-3-yl)amino)pyrimidin-4-yl)thiazol-4-yl)benzonitrile] as the compound, how does the IC50 ([1]; p-IKKa levels in L363 cells) read?
**A.** > 501 nM

**Q.** What about the IC50 [2] of the same compound?
**A.** > 501 nM

**Q.** What does the source list for `CN1C(=O)[C@](O)(c2ccnc(-c3csc(-c4ccnc(Nc5ccn(C)n5)n4)n3)c2)C[C@H]1C(F)(F)F` (single isomer, unassigned) [Example 59]?
**A.** IC50 [1, 3]: 100 to 500 nM; IC50 [2]: < 100 nM

**Q.** Which results are given for `CN1C(=O)[C@@](O)(c2ccnc(-c3csc(-c4ccnc(Nc5ccn(C)n5)n4)n3)c2)C[C@@H]1C(F)(F)F` (single isomer, unassigned) [Example 60]?
**A.** IC50 [1, 3]: > 501 nM; IC50 [2]: 100 to 500 nM

**Q.** How did the IC50 [1, 3] turn out when `CN1C(=O)[C@](O)(c2cncc(-c3csc(-c4ccnc(Nc5ccn(C)n5)n4)n3)c2)C[C@H]1C(F)(F)F` (single isomer, unassigned) [Example 61] was run?
**A.** 100 to 500 nM

**Q.** And the IC50 [2]?
**A.** < 100 nM

**Q.** Which results are given for `CN1C(=O)[C@@](O)(c2cncc(-c3csc(-c4ccnc(Nc5ccn(C)n5)n4)n3)c2)C[C@@H]1C(F)(F)F` (single isomer, unassigned) [Example 62]?
**A.** IC50 [1, 3]: > 501 nM; IC50 [2]: > 501 nM

**Q.** For `C[C@H](Nc1nccc(-n2ccc(-c3cccc([C@]4(O)CCN(C)C4=O)c3)n2)n1)c1ccnn1C` (single isomer, unassigned) [Example 91], which IC50 [1, 3] is on record?
**A.** 100 to 500 nM

**Q.** And the IC50 [2]?
**A.** < 100 nM

**Q.** `C[C@@H](Nc1nccc(-n2ccc(-c3cccc([C@]4(O)CCN(C)C4=O)c3)n2)n1)c1ccnn1C` (single isomer, unassigned) [Example 92] was tested. Which IC50 [1, 3] did it give?
**A.** < 100 nM

**Q.** And the IC50 [2]?
**A.** < 100 nM

**Q.** What does the source list for `C[C@H](Nc1nccc(-n2ccc(-c3cccc([C@]4(O)CCN(C)C4=O)c3)n2)n1)c1cnn(C)c1` (single isomer, unassigned) [Example 93]?
**A.** IC50 [1, 3]: 100 to 500 nM; IC50 [2]: < 100 nM

**Q.** Which IC50 [1, 3] does the source give for `C[C@@H](Nc1nccc(-n2ccc(-c3cccc([C@]4(O)CCN(C)C4=O)c3)n2)n1)c1cnn(C)c1` (single isomer, unassigned) [Example 94] here?
**A.** > 501 nM

**Q.** And the IC50 [2]?
**A.** < 100 nM

**Q.** Which IC50 [1, 3] does the source give for `C[C@H](Nc1nccc(-c2nc(-c3cccc([C@]4(O)CCN(C)C4=O)c3)cs2)n1)c1ccnn1C` (single isomer, unassigned) [Example 126] here?
**A.** 100 to 500 nM

**Q.** And the IC50 [2]?
**A.** < 100 nM

**Q.** How did the IC50 [1, 3] turn out when `C[C@@H](Nc1nccc(-c2nc(-c3cccc([C@]4(O)CCN(C)C4=O)c3)cs2)n1)c1ccnn1C` (single isomer, unassigned) [Example 127] was run?
**A.** 100 to 500 nM

**Q.** And the IC50 [2]?
**A.** < 100 nM

**Q.** How did the IC50 [1, 3] turn out when `COC[C@H](Nc1nccc(-c2nc(-c3cccc([C@]4(O)CCN(C)C4=O)c3)cs2)n1)c1ccnn1C` (single isomer, unassigned) [Example 129] was run?
**A.** 100 to 500 nM

**Q.** And the IC50 [2]?
**A.** < 100 nM

**Q.** How did the IC50 [1, 3] turn out when `COC[C@@H](Nc1nccc(-c2nc(-c3cccc([C@]4(O)CCN(C)C4=O)c3)cs2)n1)c1ccnn1C` (single isomer, unassigned) [Example 130] was run?
**A.** 100 to 500 nM

**Q.** And the IC50 [2]?
**A.** < 100 nM

**Q.** What does the source list for `C[C@H](Nc1nccc(-c2csc(-c3cccc([C@]4(O)CCN(C)C4=O)c3)n2)n1)c1cncn1C` (single isomer, unassigned) [Example 133]?
**A.** IC50 [1, 3]: > 501 nM; IC50 [2]: < 100 nM

**Q.** With `C[C@@H](Nc1nccc(-c2csc(-c3cccc([C@]4(O)CCN(C)C4=O)c3)n2)n1)c1cncn1C` (single isomer, unassigned) [Example 134] as the compound, how does the IC50 [1, 3] read?
**A.** > 501 nM

**Q.** And the IC50 [2]?
**A.** > 501 nM

**Q.** With `CN1CC[C@@](O)(c2cccc(-c3nc(-c4ccnc(N[C@@H]5CCCc6cn[nH]c65)n4)cs3)c2)C1=O` (single isomer, unassigned) [Example 135] as the compound, how does the IC50 [1, 3] read?
**A.** > 501 nM

**Q.** What about the IC50 [2] of the same compound?
**A.** > 501 nM

**Q.** For `CN1CC[C@@](O)(c2cccc(-c3nc(-c4ccnc(N[C@H]5CCCc6cn[nH]c65)n4)cs3)c2)C1=O` (single isomer, unassigned) [Example 136], which IC50 [1, 3] is on record?
**A.** > 501 nM

**Q.** And the IC50 [2]?
**A.** 100 to 500 nM

**Q.** What does the source list for `C[C@H](Nc1nccc(-c2csc(-c3cccc([C@]4(O)CCN(C)C4=O)c3)n2)n1)c1cn[nH]c1` (single isomer, unassigned) [Example 138]?
**A.** IC50 [1, 3]: > 501 nM; IC50 [2]: < 100 nM

**Q.** How did the IC50 [1, 3] turn out when `C[C@@H](Nc1nccc(-c2csc(-c3cccc([C@]4(O)CCN(C)C4=O)c3)n2)n1)c1cn[nH]c1` (single isomer, unassigned) [Example 139] was run?
**A.** < 100 nM

**Q.** And the IC50 [2]?
**A.** < 100 nM

**Q.** For `CN1CC[C@@](O)(c2ccnc(-c3csc(-c4ccnc(Nc5ccnn5C)n4)n3)c2)C1=O` (single isomer, unassigned) [Example 144, (R)-3-hydroxy-1-methyl-3-(2-(2-(2-((1-methyl-1H-pyrazol-5-yl)amino)pyrimidin-4-yl)thiazol-4-yl)pyridin-4-yl)pyrrolidin-2-one or (S)-3-hydroxy-1-methyl-3-(2-(2-(2-((1-methyl-1H-pyrazol-5-yl)amino)pyrimidin-4-yl)thiazol-4-yl)pyridin-4-yl)pyrrolidin-2-one], which IC50 [1, 3] is on record?
**A.** 100 to 500 nM

**Q.** And the IC50 [2]?
**A.** < 100 nM

**Q.** What does the source list for `CN1CC[C@@](O)(c2cncc(-c3ccn(-c4ccnc(Nc5cn(CC(F)F)nc5OC5CC5)n4)n3)c2)C1=O` (single isomer, unassigned) [Example 145, (R)-3-(5-(1-(2-((3-cyclopropoxy-1-(2,2-difluoroethyl)-1H-pyrazol-4-yl)amino)pyrimidin-4-yl)-1H-pyrazol-3-yl)pyridin-3-yl)-3-hydroxy-1-methylpyrrolidin-2-one or (S)-3-(5-(1-(2-((3-cyclopropoxy-1-(2,2-difluoroethyl)-1H-pyrazol-4-yl)amino)pyrimidin-4-yl)-1H-pyrazol-3-yl)pyridin-3-yl)-3-hydroxy-1-methylpyrrolidin-2-one]?
**A.** IC50 [1, 3]: < 100 nM; IC50 [2]: < 100 nM
